Consider ten compounds from EPA's ToxValDB 9.5.

Several values for one entry are separate records, joined by “and”; a condition that tells them apart may be missing. Equal entries are not always repeated.

In general, LOAEL refers to the lowest tested level that showed an adverse finding. In general, NOAEL refers to the highest dose or exposure tested at which no adverse effect was seen. For orientation: LD50 means the dose expected to kill half of the subjects tested. A lower LD50 goes with a more toxic substance.

Series [1] has as its system Mus musculus. To be noted: for LD50 / LC50: acute.
Series [2] has as its system Rattus norvegicus. As to conditions: for LD50 / LC50: acute.
Series [3] relates to Rattus norvegicus. To be noted: subchronic, oral.
In series [4] the test system is Rattus norvegicus. To be noted: uterotrophic, Active.
Series [5] concerns Rattus norvegicus. To be noted: oral, Sprague-Dawley, hepatic.
Series [6] concerns Rattus norvegicus. To be noted: chronic; duration: 2 years; oral; diet; M/F; increased absolute and relative liver weight.
[7] abbreviates: chronic, duration: 14 weeks, inhalation, B6C3F1.
[8] abbreviates: reproduction developmental, duration: 90 days, oral, diet, F.
Where [9] appears, read: reproduction developmental, duration: 90 days, oral, diet, F, Fischer 344.
The mark [10] stands for this setting: reproduction developmental, duration: 90 days, oral, diet, Fischer 344, generation: F1.
The mark [11] stands for this setting: reproduction developmental, duration: 90 days, oral, diet, generation: F1.

As for `C=CC=C` [1,3-Butadiene], the lowest observed adverse effect level (LOAEL) was 5530 mg/m3 in series [1] (setting [7]); > 17700 mg/m3 and 17700 mg/m3 in series [2] (repeat dose other, inhalation, Sprague-Dawley); 3320 mg/m3 in series [2] (reproduction developmental, inhalation, Sprague-Dawley). Also, the no-observed-adverse-effect level (NOAEL) was found to be 2770 mg/m3 in series [1] (setting [7]); 442 mg/m3 in series [1] (reproduction developmental, duration: 5 days, inhalation, M, B6C3F1); 88.5 mg/m3 in series [1] (reproduction developmental, duration: 10 days, inhalation, CD1, generation: F1); 2210 mg/m3 in series [2] (reproduction developmental, duration: 10 days, inhalation, Sprague-Dawley, generation: F1); 664 mg/m3 in series [2] (reproduction developmental, inhalation, Sprague-Dawley, generation: F0).
Consider `COc1ccc(C(=O)c2ccccc2)c(O)c1` [2-Hydroxy-4-methoxybenzophenone], for which the NOEL in series [3] (diet, F, Fischer 344, Body Weight Changes: decrease + Food Consumption: decrease + Hematology: Hgb decrease, Plt increase + Blood Chemistry: gamma-GTP increase, …) was less than 196 mg/kg-day; in series [3] (diet, M/F, Fischer 344, Body Weight Changes: decrease + Food Consumption: decrease + Hematology: Hgb decrease, Plt increase + Blood Chemistry: gamma-GTP increase, …) it was less than 300 mg/kg-day. In series [4] (duration: 4 days, oral, diet), this compound showed an LEL of 1520 mg/kg-day.
As for `Nc1ccc(Oc2ccc(N)cc2)cc1` [4,4'-Oxydianiline], the 50% lethal dose (LD50) was ≥ 635 mg/kg and ≤ 735 mg/kg in series [1] (oral, gavage); ≥ 675 mg/kg and ≤ 775 mg/kg in series [2] (oral, gavage). Moreover, the NOAEL in series [2] (developmental, oral, gavage, Sprague-Dawley) worked out at 10 mg/kg-day; in series [2] (setting [8]), 100 ppm; in series [2] (setting [9]), 100 ppm; in series [2] (setting [10]), 100 ppm; in series [2] (setting [11]), 100 ppm; in series [2] (reproduction developmental, oral, gavage, F, Sprague-Dawley), 10 mg/kg-day. In addition, the LOAEL in series [2] (setting [8]), in series [2] (setting [9]), in series [2] (setting [10]) and in series [2] (setting [11]) was 400 ppm in each case. Moreover, the NOEL in series [3] (gavage, M, Sprague-Dawley, Food Consumption: decrease + Hematology: RBC decrease, R Hgb decrease, R RET increase, R Hct decrease, MCHC decrease, R APTT decrease, WBC …) came to 3 mg/kg-day.
`CC(C)(C)c1ccc(O)cc1` [4-(1,1-Dimethylethyl)phenol] showed an LOAEL in series [2] (short-term, duration: 14 days, oral, gavage, Crj:CD) of 250 mg/kg-day. Further, the LEL in series [4] (duration: 3 days, injection, subcutaneous) is 100 mg/kg-day and 99.2 mg/kg-day.
On to `CCBr` [Bromoethane], for which the LC50 in series [1] (inhalation, B6C3F1) was determined as 12100 mg/m3; in series [1] (inhalation, CF1), 72200 mg/m3; in series [2] (inhalation, Fischer 344), 20900 mg/m3; in series [2] (inhalation, Sprague-Dawley), 120000 mg/m3. In addition, the no observed adverse effect level (NOAEL) worked out at 2230 mg/m3 in series [1] (short-term, duration: 14 days, inhalation, B6C3F1); 1780 mg/m3 in series [2] (chronic, duration: 14 weeks, inhalation, Fischer 344); 2230 mg/m3 in series [2] (short-term, duration: 14 days, inhalation, Fischer 344).
For `Cc1ccc2[nH]c3cc4c(=O)c5cc(C)ccc5[nH]c4cc3c(=O)c2c1` [C.I. Pigment Red 122], the 50% lethal dose (LD50) in series [1] (oral, gavage) was not below 5000 mg/kg; in series [2] (oral, gavage), not below 5000 mg/kg. The compound also gave an NOEL in series [3] (gavage, Sprague-Dawley) of 1000 mg/kg-day.
`[Cl-].[Cl-].[Co+2]` [Cobalt chloride] yielded an NOAEL in series [1] (developmental, duration: 5 days, oral, gavage, ICR) of 180 mg/kg-day. The compound further had an LOAEL in series [2] (chronic, duration: 150 days, oral, gavage) of 4 mg/kg-day.
Take `CCCCCCCCOC(=O)c1ccccc1C(=O)OCCCCCCCC` [Di-n-octyl phthalate]: the results for the median lethal dose (LD50) in series [1] (oral) and in series [2] (oral) were 13000 mg/kg and 53700 mg/kg, respectively. For the same compound, the NOAEL in series [1] (reproduction developmental, duration: 8 days, oral, gavage, F, CD1) was determined as 9780 mg/kg-day; in series [2] (reproduction developmental, duration: 13 weeks, oral, diet, Sprague-Dawley), 38.8 mg/kg-day; in series [5] (subchronic, duration: 13 weeks, diet, M/F), 40.8 mg/kg-day. Further, the “NOAEL (% diet)” value in series [1] (reproduction developmental, oral, CD1, generation: F0) is 5; in series [1] (reproduction developmental, oral, CD1, generation: F1), 5; in series [1] (reproduction developmental, oral, CD1, generation: F2), 5. In addition, the LOAEL in series [5] (short-term, duration: 14 days, gavage, M) stood at 1000 mg/kg-day.
`COCCOCCOC` [Diethylene glycol dimethyl ether]: the NOAEL in series [1] (developmental, duration: 9 days, oral, gavage, CD1) was 62.8 mg/kg-day; in series [1] (reproduction developmental, duration: 9 days, oral, gavage, F, CD1), 500 mg/kg-day; in series [2] (short-term, duration: 2 weeks, inhalation, nose only, F) it was 2030 mg/m3. Besides, the LC50 in series [2] (inhalation, nose only, Wistar) was more than 11000 mg/m3. The NOAEC in series [2] (repeat dose other, inhalation, M) stood at 165 mg/m3. The compound also had an LOAEL in series [2] (short-term, duration: 2 weeks, inhalation, nose only, M) of 604 mg/m3. In addition, in series [3] (gavage, M, Sprague-Dawley, Hematology: Hgb decrease, Hct decrease, MCV decrease + Necropsy: Spleen: Enlargement + Histopathology: Liver/Centrilobular- Hypertrophy of …), the NOEL amounted to 2.5 mg/kg-day.
Consider `CC1=C(C)S(=O)(=O)CCS1(=O)=O` [Dimethipin], for which, in series [6], the LEL was 10 mg/kg-day and the NOEL turned out to be 2 mg/kg-day.
